“Also recorded” adds a separate entry of the source.

Assay [1] relates to human thrombin. Particulars: general statement on the earlier variant; cited from earlier work.
A further assay concerns kallikrein. Particulars: ratio versus C1 inhibitor; cited from earlier work.
Another assay concerns factor XIIF. Particulars: ratio versus C1 inhibitor; cited from earlier work.
The next assay deals with human plasma kallikrein. In words: antikallikrein activity, residual hydrolysis of chromozyme PK at 410 nm. The assay is classed as biochemical. Here is the method:
The antikallikrein activity is assessed by measuring at 410 nm the residual extent of hydrolysis of chromosyme PK (benzoyl-Pro-Pre-Arg-4-nitroanilide acetate, Boehringer Mannheim).
2.6 pmol of human plasma kallikrein are preincubated at 37° C. with an increasing amount of inhibitor in 0.1 M Na phosphate/0.15 M NaCl buffer. After 30 minutes, the reaction is stopped by adding […] of substrate (final concentration 0.5 mM) and the residual enzyme activity is determined.

Assay [2] deals with human thrombin. The experiment in a line: thrombin inhibition curves. It is filed as biochemical. Particulars: FIG. 3; comparison with alpha1-AT(Arg358).
Assay [3] relates to human neutrophil elastase. The experiment in a line: inhibition of human neutrophil elastase by E. coli extracts. It is filed as biochemical. Particulars: clarified sonicated E. coli extracts; FIG. 1; compared with normal (Met358)alpha1-AT. Here is the method:
Clarified sonicated extracts were prepared from induced cultures of E. coli TGE900 containing one of the above three plasmids.
Aliquots of extracts are tested for their capacity to inhibit human neutrophil elastase (this technique having already been described).

Consider “(Arg^358)alpha1 -AT: human alpha1-antitrypsin variant with Met358 replaced by arginine, described in WO 86/00,337; plasmid pTG1900”, for which the antithrombin activity entry in the assay with human thrombin [1] is “very substantial”. In addition, the “activity in inactivation of kallikrein relative to C1 inhibitor” value in the assay with kallikrein is listed as 4.1 times. In the assay with factor XIIF, the “activity in inactivation of factor XIIF relative to C1 inhibitor” value is listed as 11.5 times.

For “(Ala^357, Arg^358)alpha1 -AT: variant of human alpha1-antitrypsin, Pro357 replaced by Ala and Met358 by Arg, expressed in E. coli from plasmid pTG1946”, the inhibition of kallikrein entry was “very much improved” in the assay with human plasma kallikrein (2.6 pmol kallikrein, 37° C., 30 minutes preincubation, FIG. 2) and “capable of rapidly inhibiting” in the assay on human plasma kallikrein (2.6 pmol kallikrein, 37° C., 30 minutes preincubation; FIG. 2; Arg^358) alpha1 -AT). Further, in the assay with human thrombin [2], the inhibition of thrombin entry was “very weak; also recorded: only very weakly”. The “inhibition of neutrophil elastase” value in assay [3] was “incapable of inhibiting”.

The values are drawn from patent publication US4973668A, “Variants of alpha 1-antitrypsin which are useful, in particular, as kallikrein inhibitors” (Transgene S.A., priority 1986, dated 1990).
